From patent publication US7919504B2, “Thiadiazole modulators of PKB” (Amgen Inc., priority 2007, dated 2011)

Biological target: T1, PKBα (Homo sapiens, UniProt P31749)
T1 construct: the full length PKBα and a kinase domain of PKBα with pleckstrin domain (amino acids 1-117) deleted
Experiment: PKB kinase assay (P33-labeled ATP, synthetic peptide substrate, filter plate capture)
Format: biochemical
Details: with respect to PKBα
Excerpt: The kinase assay for evaluating PKB activity comprises active PKB enzymes, a PKB specific substrate, and P^33-labeled ATP. Two form of PKBα enzymes were used, the full length PKBα and a kinase domain of PKBα with pleckstrin domain (amino acids 1-117) deleted. Both PKB enzymes were obtained from Upstate cell signaling solutions (Cat. #14-276 and 14-341). The PKB substrate used is a synthetic peptide (ARKRERTYSFGHHA (SEQ ID NO: 1)) as described in Obata et al., J. Biol. Chem. 275 (46), 36108-36115 (2000). The phosphorylated substrate was captured by a phosphocellulose membrane filter plate (MILLIPORE) and measured by a Wallac Microbeta liquid scintillation counter (Perkin Elmer). Table 1 provides the IC50 values obtained for each of the examples with respect to PKBα.

T1 sequence (P31749 118-480 limits assumed): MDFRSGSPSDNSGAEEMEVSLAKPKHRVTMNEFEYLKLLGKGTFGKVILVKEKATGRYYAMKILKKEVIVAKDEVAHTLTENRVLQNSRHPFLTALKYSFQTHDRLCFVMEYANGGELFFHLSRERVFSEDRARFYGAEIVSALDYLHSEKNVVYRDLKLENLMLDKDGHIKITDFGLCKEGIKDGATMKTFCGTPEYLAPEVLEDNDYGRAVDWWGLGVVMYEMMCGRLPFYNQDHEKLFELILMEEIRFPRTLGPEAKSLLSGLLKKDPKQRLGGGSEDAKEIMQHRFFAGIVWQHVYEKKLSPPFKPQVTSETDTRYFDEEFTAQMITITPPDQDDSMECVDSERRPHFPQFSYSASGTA

Row | SMILES | IC50 [nM]
1 | CC(Nc1nnc(-c2ccc3cnccc3c2)s1)c1ccco1 (racemic) [Example 22, (±)-N-(1-(Furan-2-yl)ethyl)-5-(isoquinolin-6-yl)-1,3,4-thiadiazol-2-amine] | 1000 to 10000
2 | CCC(O)CNc1nnc(-c2ccc3cnccc3c2)s1 (racemic) [Example 23, (±)-1-(5-(Isoquinolin-6-yl)-1,3,4-thiadiazol-2-ylamino)butan-2-ol] | 1000 to 10000
3 | Oc1cccc(C(O)CNc2nnc(-c3ccc4cnccc4c3)s2)c1 (racemic) [Example 24, (±)-3-(1-Hydroxy-2-(5-(isoquinolin-6-yl)-1,3,4-thiadiazol-2-ylamino)ethyl)phenol] | 1000 to 10000
4 | O=C(Nc1nnc(-c2ccc3cnccc3c2)s1)[C@@H]1NCC[C@@H]1c1ccccc1 (racemic) [Example 26, (±)-cis-N-(5-(Isoquinolin-6-yl)-1,3,4-thiadiazol-2-yl)-3-phenylpyrrolidine-2-carboxamide] | 50 to 1000
5 | OC(CNc1nnc(-c2ccc3cnccc3c2)s1)Cc1ccccc1 (racemic) [Example 29, (±)-1-(5-(isoquinolin-6-yl)-1,3,4-thiadiazol-2-ylamino)-3-phenylpropan-2-ol] | 50 to 1000
6 | OC(CNc1nnc(-c2ccc3cnccc3c2)s1)Cc1ccc(C(F)(F)F)cc1 (racemic) [Example 30, (±)-1-(5-(Isoquinolin-6-yl)-1,3,4-thiadiazol-2-ylamino)-3-(4-(trifluoromethyl)phenyl)propan-2-ol] | 50 to 1000
7 | c1ccc([C@@H]2CCN[C@@H]2CNc2nnc(-c3ccc4cnccc4c3)s2)cc1 (racemic) [Example 33, Racemic mixture of 5-(isoquinolin-6-yl)-N-(((2S,3S)-3-phenylpyrrolidin-2-yl)methyl)-1,3,4-thiadiazol-2-amine and 5-(isoquinolin-6-yl)-N-(((2R,3R)-3-phenylpyrrolidin-2-yl)methyl)-1,3,4-thiadiazol-2-amine] | 50 to 1000
8 | NC(CNc1nnc(-c2cccc3cnncc23)s1)Cc1ccc(C(F)(F)F)cc1 (stereo in doubt) [Example 28, N-((S)-2-amino-3-(4-(trifluoromethyl)phenyl)propyl)-5-(phthalazin-5-yl)-1,3,4-thiadiazol-2-amine] | 1000 to 10000
9 | Cn1c(=O)[nH]c2ccc(-c3nnc(NC[C@@H](N)Cc4ccc(C(F)(F)F)cc4)s3)cc21 [Example 1, 6-(5-((S)-2-Amino-3-(4-(trifluoromethyl)phenyl)propylamino)-1,3,4-thiadiazol-2-yl)-1-methyl-1H-benzo[d]imidazol-2(3H)-one] | < 50
10 | N[C@H](CNc1nnc(-c2ccc3c(c2)CC(=O)N3)s1)Cc1ccc(C(F)(F)F)cc1 [Example 2, 5-(5-((S)-2-amino-3-(4-(trifluoromethyl)phenyl)propylamino)-1,3,4-thiadiazol-2-yl)indolin-2-one] | < 50
11 | N[C@H](CNc1nnc(-c2cc3c(cc2F)NC(=O)C3)s1)Cc1ccc(C(F)(F)F)cc1 [Example 3, 5-(5-((S)-2-Amino-3-(4-(trifluoromethyl)phenyl)propylamino)-1,3,4-thiadiazol-2-yl)-6-fluoroindolin-2-one] | 50 to 1000
12 | CC(F)(F)c1ccc(C[C@H](N)CNc2nnc(-c3ccc4c(c3)CC(=O)N4)s2)cc1 [Example 4, 5-(5-((S)-2-Amino-3-(4-(1,1-difluoroethyl)phenyl)propylamino)-1,3,4-thiadiazol-2-yl)indolin-2-one] | < 50
13 | CC(C)n1c(=O)[nH]c2ccc(-c3nnc(NC[C@@H](N)Cc4ccc(C(F)(F)F)cc4)s3)cc21 [Example 5, 6-(5-((S)-2-Amino-3-(4-(trifluoromethyl)phenyl)propylamino)-1,3,4-thiadiazol-2-yl)-1-isopropyl-1H-benzo[d]imidazol-2(3H)-one] | 1000 to 10000
14 | CC(C)=C1C(=O)Nc2ccc(-c3nnc(NC[C@@H](N)Cc4ccc(C(F)(F)F)cc4)s3)cc21 [Example 6, 5-(5-((S)-2-Amino-3-(4-(trifluoromethyl)phenyl)propylamino)-1,3,4-thiadiazol-2-yl)-3-(propan-2-ylidene)indolin-2-one] | 1000 to 10000
15 | C[C@@H](c1ccc(C(F)(F)F)cc1)[C@H](N)CNc1nnc(-c2ccc3c(c2)CC(=O)N3)s1 [Example 7, 5-(5-((2S,3S)-2-Amino-3-(4-(trifluoromethyl)phenyl)butylamino)-1,3,4-thiadiazol-2-yl)indolin-2-one] | < 50
16 | N[C@H](CNc1nnc(-c2cc3c(Cl)cncc3s2)s1)Cc1cccc(C(F)(F)F)c1 [Example 8, N-((S)-2-amino-3-(3-(trifluoromethyl)phenyl)propyl)-5-(4-chlorothieno[2,3-c]pyridin-2-yl)-1,3,4-thiadiazol-2-amine] | 50 to 1000
17 | N[C@H](CNc1nnc(-c2cc3c(Cl)cncc3s2)s1)Cc1ccc(C(F)(F)F)cc1 [Example 9, N-((S)-2-amino-3-(4-(trifluoromethyl)phenyl)propyl)-5-(4-chlorothieno[2,3-c]pyridin-2-yl)-1,3,4-thiadiazol-2-amine] | 50 to 1000
18 | N[C@H](CNc1nnc(-c2cc3ccncc3s2)s1)Cc1ccc(C(F)(F)F)cc1 [Example 10, N-((S)-2-Amino-3-(4-(trifluoromethyl)phenyl)propyl)-5-(thieno[2,3-c]pyridin-2-yl)-1,3,4-thiadiazol-2-amine] | < 50
19 | N[C@H](CNc1nnc(-c2ccc3[nH]c(=O)oc3c2)s1)Cc1ccc(C(F)(F)F)cc1 [Example 11, 6-(5-((S)-2-Amino-3-(4-(trifluoromethyl)phenyl)propylamino)-1,3,4-thiadiazol-2-yl)benzo[d]oxazol-2(3H)-one] | < 50
20 | N[C@H](CNc1nnc(-c2cc3c(Cl)cncc3s2)s1)Cc1ccccc1 [Example 12, N-((S)-2-Amino-3-phenylpropyl)-5-(4-chlorothieno[2,3-c]pyridin-2-yl)-1,3,4-thiadiazol-2-amine] | 50 to 1000
21 | Cc1cccc(C[C@H](N)CNc2nnc(-c3cc4c(Cl)cncc4s3)s2)c1 [Example 13, N-((S)-2-Amino-3-m-tolylpropyl)-5-(4-chlorothieno[2,3-c]pyridin-2-yl)-1,3,4-thiadiazol-2-amine] | 50 to 1000
22 | N[C@H](CNc1nnc(-c2cc3c(Cl)cncc3s2)s1)Cc1cc(F)cc(F)c1 [Example 14, N-((S)-2-Amino-3-(3,5-difluorophenyl)propyl)-5-(4-chlorothieno[2,3-c]pyridin-2-yl)-1,3,4-thiadiazol-2-amine] | 50 to 1000
23 | CC1(C)C2CC[C@H](CNc3nnc(-c4ccc5cnccc5c4)s3)C1C2 (stereo partly drawn) [Example 15, N-(((2S)-6,6-Dimethylbicyclo[3.1.1]heptan-2-yl)methyl)-5-(isoquinolin-6-yl)-1,3,4-thiadiazol-2-amine] | 50 to 1000
24 | OC[C@H](Nc1nnc(-c2ccc3cnccc3c2)s1)[C@@H](O)c1ccccc1 [Example 16, (1S,2S)-2-(5-(Isoquinolin-6-yl)-1,3,4-thiadiazol-2-ylamino)-1-phenylpropane-1,3-diol] | 1000 to 10000
25 | O[C@@H]1CCCC[C@H]1CNc1nnc(-c2ccc3cnccc3c2)s1 [Example 17, (1R,2S)-2-((5-(Isoquinolin-6-yl)-1,3,4-thiadiazol-2-ylamino)methyl)cyclohexanol] | 50 to 1000
26 | c1ccc2[nH]c(CNc3nnc(-c4ccc5cnccc5c4)s3)nc2c1 [Example 18, N-((1H-Benzo[d]imidazol-2-yl)methyl)-5-(isoquinolin-6-yl)-1,3,4-thiadiazol-2-amine] | 1000 to 10000
